# Experimental data: US9725490B2, “ERAP1-derived peptide and use thereof” (TOKUSHIMA UNIVERSITY, priority 2011, dated 2017)
# Test system: PHB2/REA localization in MCF-7 cells
# Test: Nuclear translocation of PHB2/REA (fractionation, immunoblotting, immunostaining)
# Assay type: cell-based, human
# Conditions: for nuclear translocation of PHB2/REA, temporal: 1 hour to 24 hours after administration
# Procedure: FIG. 3-1 is a diagram illustrating that ERAP1-peptide treatment promotes nuclear translocation of PHB2. […] MCF-7 cells were stimulated for 24 hours with 10 μM ERAP1-peptide and/or 10 nM E2. The cells were fractioned into mitochondria, cytoplasm, and nuclear fractions by specific gravity centrifugation. Then, each fraction was subjected to immunoblotting analysis using an anti-ERAP1 antibody and an anti-PHB2 antibody. PRDX3, α/β-Tublin (Tublin) and lamin B are markers for mitochondria, cytoplasm, and nuclear fractions, respectively (upper panel). The protein content of each fraction was evaluated with Coomassie-stained SDS-PAGE gel (lower panel). […] KPL-3C cells were treated for 24 hours with 10 μM HA-tagged ERAP1-peptide and/or 10 nM E2. Then, the cells were fractionated into cytoplasm and nuclear fractions by specific gravity centrifugation. Then, which fraction was immunoprecipitated with anti-ERα antibody, an anti-ERAP1 antibody or an anti-PHB2 antibody. Then, immunoblotting was performed with each antibody shown in the figure (an anti-ERAP1 antibody, an anti-ERα antibody, an anti-PHB2 antibody and an anti-HA antibody (Peptide)). α/β-Tubulin (Tubulin) and Lamin B are markers for cytoplasm and nuclear fractions, respectively.
# FIG. 4-1 is a diagram illustrating that the ERAP1-peptide promotes nuclear translocation of PHB2. (A) The upper panel illustrates representative images of stained immune cells, showing the intracellular localization of PHB2. MCF-7 cells were treated with 10 μM ERAP1-peptide or ERAP1-scramble peptide. Subsequently, the cells were treated with 10 nM E2. After the immobilization, the cells were subjected to immunofluorescent staining using an anti-PHB2 antibody and DAPI (for discriminating the nucleus).
# FIG. 4-2 is a diagram illustrating that the ERAP1-peptide promotes nuclear translocation of PHB2. (B) is a diagram illustrating the results of immunoblotting analysis by which the intracellular localization of PHB2 was detected, MCF-7 cells were treated with the ERAP1-peptide or the ERAP1-scramble peptide. Subsequently immediately, the cells were treated with 10 nM E2. The cells were fractionated into cytoplasm and nuclear fractions after 1 hour or 24 hours. Each fraction was immunoprecipitated with anti-ERα antibody, an anti-ERAP1 antibody or a PH82 antibody. […]
# MCF-7 cells were seeded in an 8-well chamber (Laboratory-Tek II Chamber Slide System, Nalgen Nunc International, Naperville, Ill., USA) in 5×10^4 cells/well, and cultured under estrogen-free condition for 24 hours. […] The fluorescence image was obtained under Olympus IX71 microscope (Tokyo, Japan). […]
Compound,"nuclear translocation of PHB2/REA, temporal","translocation of PHB2/REA from the cytoplasm into the nucleus (E2 and peptide at the same time, 10 μM, 24 hours)"
CSCC[C@H](NC(=O)[C@H](CCC(N)=O)NC(=O)[C@H](CCCNC(=N)N)NC(=O)[C@H](CCCNC(=N)N)NC(=O)[C@H](CCCNC(=N)N)NC(=O)[C@H](CCCNC(=N)N)NC(=O)[C@H](CCCNC(=N)N)NC(=O)[C@H](CCCNC(=N)N)NC(=O)[C@H](CCCNC(=N)N)NC(=O)[C@H](CCCNC(=N)N)NC(=O)[C@H](CCCNC(=N)N)NC(=O)[C@H](CCCNC(=N)N)NC(=O)[C@@H](N)CCCNC(=N)N)C(=O)N[C@@H](CC(C)C)C(=O)N[C@@H](CO)C(=O)N[C@@H](CC(=O)O)C(=O)N[C@@H](CC(C)C)C(=O)N[C@H](C(=O)N[C@@H](CC(C)C)C(=O)N[C@@H](CCC(N)=O)C(=O)N[C@@H](CC(C)C)C(=O)N[C@@H](CCCNC(=N)N)C(=O)N[C@@H](CCC(N)=O)C(=O)N[C@@H](CCCNC(=N)N)C(=O)O)[C@@H](C)O [ERAP1-peptide],Prompt nuclear translocation of inherent PHB2/REA at 1 hour,remarkable translocation of PHB2/REA from the cytoplasm into the nucleus
DRQLQLSTLQRML (SEQ ID NO: 28) (ERAP1-scramble peptide) [reference compound],not recognized,–
